Assay results: patent US6630499B1, “Control of arthropods in animals” (Aventis CropScience, S.A., priority 1998, dated 2003)

Experiments:
Format in all cases: in vivo
[1] = tested on: cat fleas (Ctenocephalides felis); experiment: Control of cat fleas on treated cats (Biological Examples 1-3); conditions: 20 mg/kg; for % Control 1 DPT (Fleas): cats, 30 mg/mL in 1:1 dimethyl sulfoxide/corn oil, 1 day post-treatment, versus placebo group
Experimental: (§1) All dogs were infested with cat fleas (Ctenocephalides felis) and with ticks (Rhipicephalus sanguineus) 1 day prior to administration of the compound. Cats were only infested with fleas. The initial flea and tick counts were performed 1 day after the administration of the compounds. At 7, 14, 21 and 28 days after treatment the dogs were re-infested with ticks and 8, 15, 22 and 29 days after treatment the dogs and cats were re-infested with fleas. At 1, 9, 16, 23 and 30 days after treatment the control of fleas and ticks in treated dogs and cats was determined versus a group of infested dogs and cats which received a placebo consisting of a 1:1 volume/volume solution of dimethyl sulfoxide and corn oil. To determine the efficacies of the compounds, the arthropods were combed from the animals and counted.
(§2) The compounds listed below were formulated and tested as described in Biological Example 1, again at the dosage level of active ingredient of 10 mg/kg in dogs and 20 mg/kg in cats. Results at 1 DPT (day post-treatment) are tabulated below, where the compound numbers are the same as those listed in Tables 1, 2, 4, 5, 6, 7, 8, 9, 10, 11, 12 and 13 hereinabove.
(§3) Testing was carried out as described in Biological Example 1. […] The Huang et al compound was deemed to have insufficient activity to be tested in cats.

Emesis in treated dogs = conditions: 10 mg/kg; for % Emesis: dogs; for emesis: group of 3 dogs
Experimental: (§4) By the term “emesis” is meant vomiting. Generally an emetic substance elicits emesis in less than 24 hours after administration, usually less than 8 hours, more usually less than 2 hours. By the term “substantially non-emetic” is meant that, generally, when a compound or composition of the invention is administered to a population of animals, more than 70% (or at least ⅔) of the animals are free of emesis. Preferably, more than 80%, most preferably more than 90%, of said population is free of emesis.
(§5) In the animals treated with the compounds above, there was substantially no emesis after 2, 8 and 24 hours. Generally long-term control of fleas and ticks was provided in dogs. In the cats treated, there was commercially acceptable control of fleas for at least one day post treatment.
as §2

Emesis in treated cats = conditions: 20 mg/kg; for % Emesis: cats
Experimental: as §4, §5, §2

[2] = tested on: ticks (Rhipicephalus sanguineus); experiment: Control of ticks on treated dogs (Biological Examples 1-3); conditions: 10 mg/kg; for % Control 1 DPT (Fleas/Ticks): Ticks: dogs, 30 mg/mL in 1:1 dimethyl sulfoxide/corn oil, 1 day post-treatment, versus placebo group
Experimental: as §1, §2, §3

[3] = tested on: cat fleas (Ctenocephalides felis); experiment: Control of cat fleas on treated dogs (Biological Examples 1-3); conditions: 10 mg/kg; for % Control 1 DPT (Fleas/Ticks): Fleas: dogs, 30 mg/mL in 1:1 dimethyl sulfoxide/corn oil, 1 day post-treatment, versus placebo group
Experimental: as §1, §2, §3

SMILES	% Control 1 DPT (Fleas) [1] [%]	% Emesis (Emesis in treated dogs) [%]	% Emesis (Emesis in treated cats) [%]	% Control 1 DPT (Fleas/Ticks): Ticks [2]	% Control 1 DPT (Fleas/Ticks): Fleas [3]	also measured
CN(C(=O)C1CCCO1)c1c([S+]([O-])C(F)(F)F)c(C#N)nn1-c1c(Cl)cc(C(F)(F)F)cc1Cl (mixture of isomers) [Compound 1-9]	100	0	0	100/100%	100/100%	–
CCOC(C)C(=O)N(C)c1c([S+]([O-])C(F)(F)F)c(C#N)nn1-c1c(Cl)cc(C(F)(F)F)cc1Cl (mixture of isomers) [Compound 122-1]	–	0	–	95%	100%	–
CN(C(=O)C1CCCO1)c1c(SC(F)(F)F)c(C#N)nn1-c1c(Cl)cc(C(F)(F)F)cc1Cl (racemic) [Compound 1-7]	100	0	25	97%	100%	–
CN(C(=O)C1CCCO1)c1c(S(=O)(=O)C(F)(F)F)c(C#N)nn1-c1c(Cl)cc(C(F)(F)F)cc1Cl (racemic) [Compound 1-11]	98	0	0	100/100%	100/100%	–
CCOCC(=O)N(C)c1c([S+]([O-])C(F)(F)F)c(C#N)nn1-c1c(Cl)cc(C(F)(F)F)cc1Cl (racemic) [Compound 3-3]	100	0	0	98%	100%	–
N#Cc1nn(-c2c(Cl)cc(C(F)(F)F)cc2Cl)c(N(C(=O)C2CCCO2)C2CC2)c1S(=O)(=O)C(F)(F)F (racemic) [Compound 6-11]	98	0	0	98%	100%	–
N#Cc1nn(-c2c(Cl)cc(C(F)(F)F)cc2Cl)c(N(CC2CC2)C(=O)C2CCCO2)c1S(=O)(=O)C(F)(F)F (racemic) [Compound 7-11]	100	0	0	100/100%	100/100%	–
CCOC(C)C(=O)N(C)c1c(SC(F)(F)F)c(C#N)nn1-c1c(Cl)cc(C(F)(F)F)cc1Cl (racemic) [Compound 116-1]	100	0	0	100%	79%	–
CN(C(=O)C1CCCCO1)c1c(SC(F)(F)F)c(C#N)nn1-c1c(Cl)cc(C(F)(F)F)cc1Cl (racemic) [Compound 121-1]	100	–	0	–	–	–
CN(C(=O)C1CCCO1)c1c(SC(F)(F)F)c(C#N)nn1-c1c(Cl)cc(C(F)(F)F)cc1Cl [(R)1-7]	100	–	0	–	–	–
CN(C(=O)C1CCCO1)c1c(SC(F)(F)F)c(C#N)nn1-c1c(Cl)cc(C(F)(F)F)cc1Cl [(S)1-7]	99	–	0	–	–	–
CC(=O)N(C)c1c(SC(F)(F)F)c(C#N)nn1-c1c(Cl)cc(C(F)(F)F)cc1Cl [Compound 1-1]	99	0	0	82%	91%	–
CC(=O)N(C)c1c(S(=O)(=O)C(F)(F)F)c(C#N)nn1-c1c(Cl)cc(C(F)(F)F)cc1Cl [Compound 1-5]	0	0	33	84%	98%	–
COCC(=O)N(C)c1c(SC(F)(F)F)c(C#N)nn1-c1c(Cl)cc(C(F)(F)F)cc1Cl [Compound 2-1, 1-(2,6-dichloro-4-trifluoromethylphenyl)-3-cyano-4-trifluoromethylthio-5-(N-methyl)methoxyacetamidopyrazole]	100	0	0	100/100%	100/100%	control of fleas for at least a one month period ([1]; group of 4 cats, at least one month): 100%; emesis (Emesis in treated dogs): no emesis (0/3); vomiting (Emesis in treated cats; group of 4 cats): no vomiting; control of ticks at 30 DPT ([2]; group of 3 dogs, 30 DPT): 100%; control of fleas at 30 DPT ([3]; group of 3 dogs, 30 DPT): 93%
COCC(=O)N(C)c1c([S+]([O-])C(F)(F)F)c(C#N)nn1-c1c(Cl)cc(C(F)(F)F)cc1Cl (stereo not drawn) [Compound 2-3]	100	33	0	99%	100%	–
COCC(=O)N(C)c1c(S(=O)(=O)C(F)(F)F)c(C#N)nn1-c1c(Cl)cc(C(F)(F)F)cc1Cl [Compound 2-5]	100	33	0	95%	100%	–
N#Cc1nn(-c2c(Cl)cc(C(F)(F)F)cc2Cl)c(N(CC2CC2)C(=O)C2CCCO2)c1SC(F)(F)F (stereo not drawn) [Compound 7-7]	–	0	–	66%	29%	–
CCOCC(=O)N(CC1CC1)c1c(S(=O)(=O)C(F)(F)F)c(C#N)nn1-c1c(Cl)cc(C(F)(F)F)cc1Cl [Compound 28-5]	–	0	–	74%	100%	–
COCCC(=O)N(C)c1c(SC(F)(F)F)c(C#N)nn1-c1c(Cl)cc(C(F)(F)F)cc1Cl [Compound 37-1]	76	–	0	–	–	–
CCOCCC(=O)N(C)c1c(SC(F)(F)F)c(C#N)nn1-c1c(Cl)cc(C(F)(F)F)cc1Cl [Compound 38-1]	87	–	0	–	–	–
CCCOC(=O)N(CCC)c1c(SC(F)(F)F)c(C#N)nn1-c1c(Cl)cc(C(F)(F)F)cc1Cl [Compound 78-1]	–	0	–	94%	96%	–
CN(C(=O)C1CC1)c1c(SC(F)(F)F)c(C#N)nn1-c1c(Cl)cc(C(F)(F)F)cc1Cl [Compound 117-1]	45	–	0	–	–	–
CCOC(C)(C)C(=O)N(C)c1c(SC(F)(F)F)c(C#N)nn1-c1c(Cl)cc(C(F)(F)F)cc1Cl [Compound 119-1]	99	–	0	–	–	–
CCCC(=O)N(C)c1c(SC(F)(F)F)c(C#N)nn1-c1c(Cl)cc(C(F)(F)F)cc1Cl [Compound 124-1]	92	–	0	–	–	–
N#Cc1nn(-c2c(Cl)cc(C(F)(F)F)cc2Cl)c(N=CNCC(F)(F)F)c1SC(F)(F)F [Compound 211-1]	–	0	–	51%	99%	–
N#Cc1nn(-c2c(Cl)cc(C(F)(F)F)cc2Cl)c(N=CNCc2ccccc2)c1SC(F)(F)F [Compound 224]	–	0	–	6%	38%	–
COCC(=O)Nc1c(SC(F)(F)F)c(C#N)nn1-c1c(Cl)cc(C(F)(F)F)cc1Cl [Huang et al compound, 1-(2,6-dichloro-4-trifluoromethylphenyl)-3-cyano-4-trifluoromethylthio-5-(methoxyacetamido)pyrazole, reference compound]	–	–	–	–	–	emesis (Emesis in treated dogs): no emesis (0/3); control of ticks after 9 DPT ([2]; group of 3 dogs, 9 DPT): < 50%; control of fleas after 9 DPT ([3]; group of 3 dogs, 9 DPT): < 50%
